Where two headings read alike, the source gives them in different places.
Key:
MOLM-14 = test: Cell growth assay, MOLM-14 AML cell line; type: cell-based, human; details: Homo sapiens
Procedure: (§1) For all other cell lines, compounds were serially diluted in medium and dispensed in triplicate in 96-well plates (0.1% DMSO final for assay) followed by the addition of exponentially growing cells at densities ranging from 5,000 to 30,000 cells/well. Cells were also seeded into 2 additional control wells containing vehicle (0.1% DMSO). […] To determine the estimated cell number in each well, cells that were counted in the control well were diluted 3-fold for an 8-point dilution series, and transferred to 384-well plates in duplicate, 20 μL per well. Cells in all other wells were diluted 4-fold and transferred to 384-well plates in duplicate, 20 μL per well. 20 μL of CellTiter-Glo (Promega) was subsequently added to all wells and luminescence was detected using a SPECTRAmax M3. The control well dilution series was fit to a linear regression and used as a standard for calculating the estimated cell number for each well. For days 7 and 10, total estimated cell number represents the split-adjusted theoretical cell number.

SET-2 = test: Cell growth assay, SET-2 cell line; type: cell-based; details: Homo sapiens, SET-2, 240 h; read-out: SET-2 GI50 day 10
Procedure: (§2) For all other cell lines, compounds were serially diluted in medium and dispensed in triplicate in 96-well plates (0.1% DMSO final for assay) followed by the addition of exponentially growing cells at densities ranging from 5,000 to 30,000 cells/well. Cells were also seeded into 2 additional control wells containing vehicle (0.1% DMSO). After 3 days, the number of viable cells in one of the control wells was counted by hemocytometer or MOXI Z (Orflo) and an equal volume of cells for all wells were split-back with fresh vehicle/compounds such that the resulting seeding density for the control well was 5,000-30,000 cells/well, matching the initial seeding density in that well. This procedure was repeated on day 7 and day 10. % growth was calculated as % growth=100×(total estimated cell number in well−day 0 starting cell number)/(total average vehicle estimated cell number−day 0 starting cell number). To determine the estimated cell number in each well, cells that were counted in the control well were diluted 3-fold for an 8-point dilution series, and transferred to 384-well plates in duplicate, 20 μL per well. Cells in all other wells were diluted 4-fold and transferred to 384-well plates in duplicate, 20 μL per well. 20 μL of CellTiter-Glo (Promega) was subsequently added to all wells and luminescence was detected using a SPECTRAmax M3. The control well dilution series was fit to a linear regression and used as a standard for calculating the estimated cell number for each well. For days 7 and 10, total estimated cell number represents the split-adjusted theoretical cell number.

MV4;11 = test: Cell growth assay, MV4;11 AML cell line; type: cell-based, human; details: Homo sapiens
Procedure: as §1

K562 = test: Cell growth assay, K562 cell line; type: cell-based, human; details: Homo sapiens, K562, 240 h; day 10; lack of activity is taken as evidence of on-target selectivity
Procedure: as §2

[1] = Pharmacokinetic study of 14A in male CD-1 mice; type: in vivo; details: CD-1, mouse, blood
Procedure: For pharmacokinetic studies with (14A), (14A) was formulated in 20% hydroxypropyl-beta-cyclodextrin (HPCD) and male CD-1 mice were given a single dose of 14A at 3 mg/kg i.p. and intravenous (i.v.) and 10 mg/kg oral (p.o.). Prior to dosing, mice were fasted overnight until 4 hours post-dosing. Blood samples were collected at the indicated timepoints and analyzed by HPLC/MS/MS to evaluate the concentration of (14A).

[2] = tested on: Human Umbilical Vein Endothelial Cells (HUVECs); details: less potent than cortistatin A; Aoki et al. 2007; cited from earlier work
[3] = tested on: Human Umbilical Vein Endothelial Cells (HUVECs); test: HUVEC growth inhibition (CellTiter-Blue, 96 h); type: cell-based; details: 96 hour treatment
Procedure: HUVECs were plated in triplicate in 96-well plates at a density of 1,000 cells/well in 75 μL. After 24 h, compounds were serially diluted in medium and delivered to cells as 4× solutions in 25 μL (0.1% DMSO final for assay). 96 h after compound addition, CellTiter-Blue (Promega) was added to the wells, plates were incubated at 37° C. for 90 min, and fluorescence (555 nm excitation; 580 nm emission) was detected using a SPECTRAmax M3. IC50 was determined by fitting the data to a four-parameter dose-response curve using GraphPad Prism 5.0.

[4] = MOLM-14, 240 h, day 10, cells passaged, fresh compound added on days 3 and 7, read-out: MOL M14 G150 day 10
[5] = MV4-11, 240 h, day 10, cells passaged, fresh compound added on days 3 and 7, read-out: MV 4;11 GI50 day 10
[6] = MOLM-14, day 7, fresh compound added on day 3, read-out: MOL M14 GI50 day 7
[7] = MV4-11, day 7, fresh compound added on day 3, read-out: MV4;11 GI50 day 7

| Compound | GI50 (MOLM-14; [4]) [nM] | GI50 (MV4;11; [5]) [nM] | GI50 (K562) [nM] | further results |
| --- | --- | --- | --- | --- |
| CN[C@@H]1CCC2=CC3=CC[C@]4(C)C(c5ccc6ccncc6c5)CC[C@H]4C34CC[C@]2(C1)O4 (stereo partly drawn) [24A, α-monomethylamine] | 18 | 1 | – | GI50 (SET-2): 0.5 nM |
| CC1(C)NC(=O)N([C@@H]2CCC3=CC4=CC[C@]5(C)[C@@H](c6ccc7ccncc7c6)CC[C@H]5C45CC[C@]3(C2)O5)C1=O [74A, α-dimethylhydantoin] | 800 | 400 | > 1000 | – |
| C[C@]12CC=C3C=C4CC[C@H](N5CCOCC5)C[C@]45CCC3(O5)[C@@H]1CC[C@@H]2c1ccc2ccncc2c1 [15B, β-morpholine] | 12.5 | 12 | > 1000 | – |
| CN(C)[C@@H]1CCC2=CC3=CC[C@]4(C)[C@@H](c5ccc6ccncc6c5)CC[C@H]4C34CC[C@]2(C1)O4 [14A, α-dimethylamine] | – | – | – | clearance ([1]; 3 mg/kg IV): 29 mL/min/kg; Cmax ([1]; 10 mg/kg PO in 20% HPCD, after 2 hours, read-out: Cmax after oral dosing): 255 ng/mL; half-life ([1]; 10 mg/kg PO in 20% HPCD, read-out: T1/2 after oral dosing (converted)): ~5 h; concentration at 24 h ([1]; 10 mg/kg PO, 24 h, read-out: oral C24 trough concentration): 14.2 ng/mL; bioavailability ([1]; ip, 3 mg/kg, 3 mg/kg IP, read-out: IP bioavailability): 95%; Vd ([1]; iv, 3 mg/kg, 3 mg/kg IV, read-out: Vss): 11.7 L/kg; bioavailability ([1]; oral, 10 mg/kg, 10 mg/kg PO vs 3 mg/kg IV, read-out: oral bioavailability): 44% |
| cortistatin J | – | – | – | potency at inhibiting HUVEC proliferation relative to cortistatin A [2]: 8 fold |
| C[C@]12CC=C3C=C4[C@@H](O)[C@H](O)[C@@H]([N+](C)(C)[O-])CC45CC[C@]3(O5)[C@@H]1CC[C@@H]2c1ccc2ccncc2c1 [cortistatin A N-oxide, Cortistatin A N-oxide] | – | – | – | inhibition of HUVEC proliferation compared with cortistatin A [3]: equipotent |
| CN(C)[C@H]1CCC2=CC3=CC[C@]4(C)C(c5ccc6ccncc6c5)=CC[C@H]4[C@@]34CC[C@]2(C1)O4 [23B, β-dimethylamine 17,18-unsaturated isoquinoline] | 55 | 35 | > 1000 | – |
| C[C@]12CC=C3C=C4CC[C@H](NS(C)(=O)=O)C[C@]45CCC3(O5)[C@@H]1CC[C@@H]2c1ccc2ccncc2c1 [73B, β-methylsulfonamide] | 200 | 150 | > 1000 | – |
| CN1CCN([C@H]2CCC3=CC4=CC[C@]5(C)[C@@H](c6ccc7ccncc7c6)CC[C@H]5C45CC[C@]3(C2)O5)CC1 [16B, β-N-methylpiperazine] | 9 | 8 | > 1000 | GI50 (MOLM-14; [6]): 17 nM; GI50 (MV4;11; [7]): 15 nM |
| C[C@]12CC=C3C=C4CC[C@H](N5CCC5)C[C@]45CCC3(O5)[C@@H]1CC[C@@H]2c1ccc2ccncc2c1 [18B, β-azetidine] | 13 | 13 | > 1000 | GI50 (MOLM-14; [6]): 25 nM; GI50 (MV4;11; [7]): 20 nM |
| C[C@]12CC=C3C=C4CC[C@@H](NS(C)(=O)=O)C[C@]45CCC3(O5)[C@@H]1CC[C@@H]2c1ccc2ccncc2c1 [73A, α-methylsulfonamide] | 200 | 90 | > 1000 | – |
| C[C@]12CC=C3C=C4CC[C@@H](N5CCCC5)C[C@]45CC[C@]3(O5)[C@@H]1CC[C@@H]2c1ccc2ccncc2c1 [19A, α-pyrrolidine] | 5 | 1.5 | – | GI50 (SET-2): 0.4 nM |
| C[C@]12CC=C3C=C4CC[C@@H](N5CCOCC5)C[C@]45CCC3(O5)[C@@H]1CC[C@@H]2c1ccc2ccncc2c1 [15A, α-morpholine] | 20 | 2.5 | – | GI50 (SET-2): 8 nM |
| C[C@]12CC=C3C=C4CC[C@@H](N)CC45CC[C@]3(O5)[C@@H]1CC[C@@H]2c1ccc2ccncc2c1 [62A, α-primaryamine] | 5 | 0.4 | – | GI50 (SET-2): 0.45 nM |

— patent publication US10273241B2 (President and Fellows of Harvard College, priority 2013, dated 2019)
